{"source": "patent US20240415914A1", "about": "“Water Dispersible Cannabinoid Compositions” (priority 2021, published 2024)", "experiment": "Stability of cannabinoid and Vitamin E components of Beverage 1 (AB White) stored at 8° C. and 21-25° C., LCMSMS over 570 days", "format": "physicochemical", "settings": "for Stability in AB White, 8° C. (content by LCMSMS): beverage stored at 8° C.; for Stability in AB White, 21-25° C. (content by LCMSMS): beverage stored at 21-25° C.", "procedure": "The LCMSMS was calibrated for 0-1000 ng/ml cannabinoids with the same resin material used in the preparation of the concentrates. At each time period, 100 ml of beverage was diluted with 10 ml of methanol and injected into the LCMSMS for analysis.", "data": [{"smiles": "CCCCCc1cc(O)c2c(c1)OC(C)(CCC=C(C)C)C=C2", "note": "(centres unmarked) [CBC, cannabichromene]", "values": [{"measurement": "Stability in AB White, 8° C. (content by LCMSMS)", "setting": "day 0", "value": 0.320, "unit": "µg/mL"}, {"measurement": "Stability in AB White, 8° C. (content by LCMSMS)", "setting": "day 1", "value": 0.314, "unit": "µg/mL"}, {"measurement": "Stability in AB White, 8° C. (content by LCMSMS)", "setting": "day 2", "value": 0.315, "unit": "µg/mL"}, {"measurement": "Stability in AB White, 8° C. (content by LCMSMS)", "setting": "day 3", "value": 0.322, "unit": "µg/mL"}, {"measurement": "Stability in AB White, 8° C. (content by LCMSMS)", "setting": "day 5", "value": 0.322, "unit": "µg/mL"}, {"measurement": "Stability in AB White, 8° C. (content by LCMSMS)", "setting": "day 8", "value": 0.318, "unit": "µg/mL"}, {"measurement": "Stability in AB White, 8° C. (content by LCMSMS)", "setting": "day 9", "value": 0.319, "unit": "µg/mL"}, {"measurement": "Stability in AB White, 8° C. (content by LCMSMS)", "setting": "day 10", "value": 0.314, "unit": "µg/mL"}, {"measurement": "Stability in AB White, 8° C. (content by LCMSMS)", "setting": "day 11", "value": 0.314, "unit": "µg/mL"}, {"measurement": "Stability in AB White, 8° C. (content by LCMSMS)", "setting": "day 12", "value": 0.319, "unit": "µg/mL"}, {"measurement": "Stability in AB White, 8° C. (content by LCMSMS)", "setting": "day 15", "value": 0.317, "unit": "µg/mL"}, {"measurement": "Stability in AB White, 8° C. (content by LCMSMS)", "setting": "day 16", "value": 0.320, "unit": "µg/mL"}, {"measurement": "Stability in AB White, 8° C. (content by LCMSMS)", "setting": "day 17", "value": 0.315, "unit": "µg/mL"}, {"measurement": "Stability in AB White, 8° C. (content by LCMSMS)", "setting": "day 18", "value": 0.312, "unit": "µg/mL"}, {"measurement": "Stability in AB White, 8° C. (content by LCMSMS)", "setting": "day 19", "value": 0.317, "unit": "µg/mL"}, {"measurement": "Stability in AB White, 8° C. (content by LCMSMS)", "setting": "day 22", "value": 0.315, "unit": "µg/mL"}, {"measurement": "Stability in AB White, 8° C. (content by LCMSMS)", "setting": "day 23", "value": 0.321, "unit": "µg/mL"}, {"measurement": "Stability in AB White, 8° C. (content by LCMSMS)", "setting": "day 24", "value": 0.316, "unit": "µg/mL"}, {"measurement": "Stability in AB White, 8° C. (content by LCMSMS)", "setting": "day 25", "value": 0.310, "unit": "µg/mL"}, {"measurement": "Stability in AB White, 8° C. (content by LCMSMS)", "setting": "day 26", "value": 0.316, "unit": "µg/mL"}, {"measurement": "Stability in AB White, 8° C. (content by LCMSMS)", "setting": "day 29", "value": 0.321, "unit": "µg/mL"}, {"measurement": "Stability in AB White, 8° C. (content by LCMSMS)", "setting": "day 30", "value": 0.317, "unit": "µg/mL"}, {"measurement": "Stability in AB White, 8° C. (content by LCMSMS)", "setting": "day 60", "value": 0.316, "unit": "µg/mL"}, {"measurement": "Stability in AB White, 8° C. (content by LCMSMS)", "setting": "day 90", "value": 0.318, "unit": "µg/mL"}, {"measurement": "Stability in AB White, 8° C. (content by LCMSMS)", "setting": "day 120", "value": 0.311, "unit": "µg/mL"}, {"measurement": "Stability in AB White, 8° C. (content by LCMSMS)", "setting": "day 150", "value": 0.314, "unit": "µg/mL"}, {"measurement": "Stability in AB White, 8° C. (content by LCMSMS)", "setting": "day 180", "value": 0.319, "unit": "µg/mL"}, {"measurement": "Stability in AB White, 8° C. (content by LCMSMS)", "setting": "day 210", "value": 0.309, "unit": "µg/mL"}, {"measurement": "Stability in AB White, 8° C. (content by LCMSMS)", "setting": "day 240", "value": 0.316, "unit": "µg/mL"}, {"measurement": "Stability in AB White, 8° C. (content by LCMSMS)", "setting": "day 270", "value": 0.316, "unit": "µg/mL"}, {"measurement": "Stability in AB White, 8° C. (content by LCMSMS)", "setting": "day 300", "value": 0.313, "unit": "µg/mL"}, {"measurement": "Stability in AB White, 8° C. (content by LCMSMS)", "setting": "day 330", "value": 0.316, "unit": "µg/mL"}, {"measurement": "Stability in AB White, 8° C. (content by LCMSMS)", "setting": "day 360", "value": 0.306, "unit": "µg/mL"}, {"measurement": "Stability in AB White, 8° C. (content by LCMSMS)", "setting": "day 390", "value": 0.310, "unit": "µg/mL"}, {"measurement": "Stability in AB White, 8° C. (content by LCMSMS)", "setting": "day 420", "value": 0.307, "unit": "µg/mL"}, {"measurement": "Stability in AB White, 8° C. (content by LCMSMS)", "setting": "day 450", "value": 0.312, "unit": "µg/mL"}, {"measurement": "Stability in AB White, 8° C. (content by LCMSMS)", "setting": "day 480", "value": 0.305, "unit": "µg/mL"}, {"measurement": "Stability in AB White, 8° C. (content by LCMSMS)", "setting": "day 510", "value": 0.295, "unit": "µg/mL"}, {"measurement": "Stability in AB White, 8° C. (content by LCMSMS)", "setting": "day 540", "value": 0.299, "unit": "µg/mL"}, {"measurement": "Stability in AB White, 8° C. (content by LCMSMS)", "setting": "day 570", "value": 0.293, "unit": "µg/mL"}, {"measurement": "Stability in AB White, 21-25° C. (content by LCMSMS)", "setting": "day 0", "value": 0.320, "unit": "µg/mL"}, {"measurement": "Stability in AB White, 21-25° C. (content by LCMSMS)", "setting": "day 1", "value": 0.313, "unit": "µg/mL"}, {"measurement": "Stability in AB White, 21-25° C. (content by LCMSMS)", "setting": "day 2", "value": 0.318, "unit": "µg/mL"}, {"measurement": "Stability in AB White, 21-25° C. (content by LCMSMS)", "setting": "day 3", "value": 0.311, "unit": "µg/mL"}, {"measurement": "Stability in AB White, 21-25° C. (content by LCMSMS)", "setting": "day 5", "value": 0.323, "unit": "µg/mL"}, {"measurement": "Stability in AB White, 21-25° C. (content by LCMSMS)", "setting": "day 8", "value": 0.319, "unit": "µg/mL"}, {"measurement": "Stability in AB White, 21-25° C. (content by LCMSMS)", "setting": "day 9", "value": 0.307, "unit": "µg/mL"}, {"measurement": "Stability in AB White, 21-25° C. (content by LCMSMS)", "setting": "day 10", "value": 0.312, "unit": "µg/mL"}, {"measurement": "Stability in AB White, 21-25° C. (content by LCMSMS)", "setting": "day 11", "value": 0.311, "unit": "µg/mL"}, {"measurement": "Stability in AB White, 21-25° C. (content by LCMSMS)", "setting": "day 12", "value": 0.316, "unit": "µg/mL"}, {"measurement": "Stability in AB White, 21-25° C. (content by LCMSMS)", "setting": "day 15", "value": 0.311, "unit": "µg/mL"}, {"measurement": "Stability in AB White, 21-25° C. (content by LCMSMS)", "setting": "day 16", "value": 0.321, "unit": "µg/mL"}, {"measurement": "Stability in AB White, 21-25° C. (content by LCMSMS)", "setting": "day 17", "value": 0.323, "unit": "µg/mL"}, {"measurement": "Stability in AB White, 21-25° C. (content by LCMSMS)", "setting": "day 18", "value": 0.313, "unit": "µg/mL"}, {"measurement": "Stability in AB White, 21-25° C. (content by LCMSMS)", "setting": "day 19", "value": 0.316, "unit": "µg/mL"}, {"measurement": "Stability in AB White, 21-25° C. (content by LCMSMS)", "setting": "day 22", "value": 0.322, "unit": "µg/mL"}, {"measurement": "Stability in AB White, 21-25° C. (content by LCMSMS)", "setting": "day 23", "value": 0.316, "unit": "µg/mL"}, {"measurement": "Stability in AB White, 21-25° C. (content by LCMSMS)", "setting": "day 24", "value": 0.308, "unit": "µg/mL"}, {"measurement": "Stability in AB White, 21-25° C. (content by LCMSMS)", "setting": "day 25", "value": 0.310, "unit": "µg/mL"}, {"measurement": "Stability in AB White, 21-25° C. (content by LCMSMS)", "setting": "day 26", "value": 0.308, "unit": "µg/mL"}, {"measurement": "Stability in AB White, 21-25° C. (content by LCMSMS)", "setting": "day 29", "value": 0.317, "unit": "µg/mL"}, {"measurement": "Stability in AB White, 21-25° C. (content by LCMSMS)", "setting": "day 30", "value": 0.317, "unit": "µg/mL"}, {"measurement": "Stability in AB White, 21-25° C. (content by LCMSMS)", "setting": "day 60", "value": 0.306, "unit": "µg/mL"}, {"measurement": "Stability in AB White, 21-25° C. (content by LCMSMS)", "setting": "day 90", "value": 0.305, "unit": "µg/mL"}, {"measurement": "Stability in AB White, 21-25° C. (content by LCMSMS)", "setting": "day 120", "value": 0.318, "unit": "µg/mL"}, {"measurement": "Stability in AB White, 21-25° C. (content by LCMSMS)", "setting": "day 150", "value": 0.312, "unit": "µg/mL"}, {"measurement": "Stability in AB White, 21-25° C. (content by LCMSMS)", "setting": "day 180", "value": 0.315, "unit": "µg/mL"}, {"measurement": "Stability in AB White, 21-25° C. (content by LCMSMS)", "setting": "day 210", "value": 0.307, "unit": "µg/mL"}, {"measurement": "Stability in AB White, 21-25° C. (content by LCMSMS)", "setting": "day 240", "value": 0.304, "unit": "µg/mL"}, {"measurement": "Stability in AB White, 21-25° C. (content by LCMSMS)", "setting": "day 270", "value": 0.316, "unit": "µg/mL"}, {"measurement": "Stability in AB White, 21-25° C. (content by LCMSMS)", "setting": "day 300", "value": 0.312, "unit": "µg/mL"}, {"measurement": "Stability in AB White, 21-25° C. (content by LCMSMS)", "setting": "day 330", "value": 0.312, "unit": "µg/mL"}, {"measurement": "Stability in AB White, 21-25° C. (content by LCMSMS)", "setting": "day 360", "value": 0.310, "unit": "µg/mL"}, {"measurement": "Stability in AB White, 21-25° C. (content by LCMSMS)", "setting": "day 390", "value": 0.303, "unit": "µg/mL"}, {"measurement": "Stability in AB White, 21-25° C. (content by LCMSMS)", "setting": "day 420", "value": 0.312, "unit": "µg/mL"}, {"measurement": "Stability in AB White, 21-25° C. (content by LCMSMS)", "setting": "day 450", "value": 0.310, "unit": "µg/mL"}, {"measurement": "Stability in AB White, 21-25° C. (content by LCMSMS)", "setting": "day 480", "value": 0.294, "unit": "µg/mL"}, {"measurement": "Stability in AB White, 21-25° C. (content by LCMSMS)", "setting": "day 510", "value": 0.293, "unit": "µg/mL"}, {"measurement": "Stability in AB White, 21-25° C. (content by LCMSMS)", "setting": "day 540", "value": 0.294, "unit": "µg/mL"}, {"measurement": "Stability in AB White, 21-25° C. (content by LCMSMS)", "setting": "day 570", "value": 0.295, "unit": "µg/mL"}]}]}
